Square brackets hold non-standard residues; d marks the D form. Peptide text beside a SMILES is read from it. * marks the point of attachment. Propionyl = CCC(=O)*; Mpa = O=C(O)CCS Where only a bound is given, the exact number is not on record here.

One may read the IC50 as the concentration needed to halve the response being measured. Usually inhibition in vivo stands for the change of the read-out against control, counted positive when it falls.

For one assay, the target named is Neutrophil collagenase (Rattus norvegicus, UniProt O88766). Description: Compound was tested for its inhibitory activity against Matrix metalloprotease-8 (MMP-8) in adjuvant arthritic rat model of rheumatoid arthritis.
Neutrophil collagenase, sequence (O88766 whole entry): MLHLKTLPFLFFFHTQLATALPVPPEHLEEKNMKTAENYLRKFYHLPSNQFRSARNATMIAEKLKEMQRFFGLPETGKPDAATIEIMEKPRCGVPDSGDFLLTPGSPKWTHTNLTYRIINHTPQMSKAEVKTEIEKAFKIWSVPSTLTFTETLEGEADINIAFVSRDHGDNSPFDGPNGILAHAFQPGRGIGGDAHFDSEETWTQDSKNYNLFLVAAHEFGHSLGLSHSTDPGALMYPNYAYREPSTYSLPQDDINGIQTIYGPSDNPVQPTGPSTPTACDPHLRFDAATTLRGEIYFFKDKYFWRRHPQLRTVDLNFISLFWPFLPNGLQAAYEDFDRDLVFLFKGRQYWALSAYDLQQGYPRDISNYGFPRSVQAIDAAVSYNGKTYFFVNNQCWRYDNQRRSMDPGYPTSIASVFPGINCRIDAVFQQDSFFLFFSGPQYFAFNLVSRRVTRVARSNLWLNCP
Assay [1] concerns the target T1, Matrix metalloproteinase-9 (Rattus norvegicus, UniProt P50282). Kind of assay: Compound was tested for its inhibitory activity against Matrix metalloprotease-9 (MMP-9) in adjuvant arthritic rat model of rheumatoid arthritis.
In assay [2] the target is T1, Matrix metalloproteinase-9. Kind of assay: Compound was tested for its inhibitory activity against Matrix metalloprotease-9 in adjuvant arthritic rat model of rheumatoid arthritis.
Another assay relates to Rattus norvegicus. Kind of assay: Inhibition of hind paw swelling was observed by the administration of compound at 40 mg/kg/day, perorally in adjuvant arthritic rat model of rheumatoid arthritis. Format: functional. The conditions noted are these: route oral.

T1 sequence (P50282 whole entry): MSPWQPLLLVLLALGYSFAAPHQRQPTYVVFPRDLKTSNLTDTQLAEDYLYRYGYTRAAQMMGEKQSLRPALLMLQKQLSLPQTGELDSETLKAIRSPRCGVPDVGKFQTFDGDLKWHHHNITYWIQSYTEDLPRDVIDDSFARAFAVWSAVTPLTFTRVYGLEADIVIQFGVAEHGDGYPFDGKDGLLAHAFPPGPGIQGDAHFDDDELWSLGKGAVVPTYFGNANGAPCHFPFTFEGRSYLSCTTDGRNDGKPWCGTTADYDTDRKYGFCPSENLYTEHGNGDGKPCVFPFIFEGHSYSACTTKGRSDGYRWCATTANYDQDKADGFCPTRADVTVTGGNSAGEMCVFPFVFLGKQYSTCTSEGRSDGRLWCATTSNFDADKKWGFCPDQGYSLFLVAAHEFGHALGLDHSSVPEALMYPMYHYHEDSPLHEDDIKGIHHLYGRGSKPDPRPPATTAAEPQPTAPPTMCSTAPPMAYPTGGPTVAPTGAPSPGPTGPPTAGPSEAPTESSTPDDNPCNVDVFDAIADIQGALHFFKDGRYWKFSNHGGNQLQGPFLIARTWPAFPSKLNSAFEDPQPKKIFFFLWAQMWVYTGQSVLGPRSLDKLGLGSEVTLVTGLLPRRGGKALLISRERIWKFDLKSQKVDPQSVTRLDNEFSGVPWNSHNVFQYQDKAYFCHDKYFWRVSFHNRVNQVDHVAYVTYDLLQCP

As to `CNC(=O)[C@H](Cc1cscn1)NC(=O)[C@H](CC(C)C)NC(=O)CS`, the IC50 on Neutrophil collagenase came to 12 nM; in assay [1], 7 nM.

For `CNC(=O)[C@H](Cc1ccccc1)NC(=O)[C@H](CSC)NC(=O)CS`, the IC50 is 13 nM in assay [2] and 6 nM on Neutrophil collagenase.

`CNC(=O)[C@H](Cc1ccccc1)NC(=O)[C@H](C[S+](C)[O-])NC(=O)CS` (stereo partly specified): the figures for the IC50 (in assay [2]; on Neutrophil collagenase) were 350 nM and 480 nM, respectively.

For the compound `CNC(=O)[C@H](Cc1ccccc1)NC(=O)[C@@H](NC(=O)CS)C(C)O` (stereo partly specified), the values for the IC50 (in assay [2]; on Neutrophil collagenase) were 1700 nM and 4100 nM, respectively.

With `CNC(=O)[C@H](Cc1ccccc1)NC(=O)[C@H](CC(C)C)NC(=O)CS`, the IC50 in assay [2] was found to be 90 nM; at Neutrophil collagenase, 50 nM. Besides, the inhibition in vivo at 40 mg/kg/day with Rattus norvegicus amounted to 40%.

Regarding `CNC(=O)[C@H](Cc1ccccc1)NC(=O)[C@H](CC(C)C)NC(=O)CSC`, the figures for the IC50 (in assay [2]; on Neutrophil collagenase) were 4600 nM and 2600 nM, respectively.

For `CNC(=O)[C@H](Cc1c[nH]c2ccccc12)NC(=O)[C@H](CSC)NC(=O)CS`, the values for the IC50 (on Neutrophil collagenase; in assay [1]) were 20 nM and 120 nM, respectively.

In the case of `CNC(=O)[C@H](Cc1c[nH]c2ccccc12)NC(=O)[C@H](CC(C)C)NC(=O)CS`, the IC50 at Neutrophil collagenase turned out to be 80 nM; in assay [1], 30 nM.

As for `CCC(=O)N[C@@H](CC(C)C)C(=O)N[C@@H](Cc1ccccc1)C(=O)NC` (Propionyl-Leu-Phe-NHMe), the IC50 in assay [2] is 30000 nM; on Neutrophil collagenase it was more than 100000 nM.

As to `CNC(=O)[C@H](Cc1ccccc1)NC(=O)[C@H](CC(C)C)NC(=O)CCS` ([Mpa]-Leu-Phe-NHMe), the IC50 came to 9600 nM in assay [2] and 5100 nM on Neutrophil collagenase.

The values above are taken from ChEMBL document CHEMBL1129895, “A novel series of matrix metalloproteinase inhibitors for the treatment of inflammatory disorders” (Bioorg Med Chem Lett, 1997).
